Data reported in US6750228B1, “Aromatic sulfone hydroxamic acid metalloprotease inhibitor” (priority 1997, dated 2004).
Counter-ions that a name gives are not always drawn. Like-named read-outs stand apart in the source and are kept apart here.

What was measured:
Test in all cases: biochemical
MMP-1 = target: T1, MMP-1 (Homo sapiens, UniProt P03956); details: read-out: MMP-1 IC50
T1 construct: made in house; host or cells: transfected HT-1080 cells (provided by Dr. Harold Welgus, Washington University)
T1 sequence (P03956 100-469): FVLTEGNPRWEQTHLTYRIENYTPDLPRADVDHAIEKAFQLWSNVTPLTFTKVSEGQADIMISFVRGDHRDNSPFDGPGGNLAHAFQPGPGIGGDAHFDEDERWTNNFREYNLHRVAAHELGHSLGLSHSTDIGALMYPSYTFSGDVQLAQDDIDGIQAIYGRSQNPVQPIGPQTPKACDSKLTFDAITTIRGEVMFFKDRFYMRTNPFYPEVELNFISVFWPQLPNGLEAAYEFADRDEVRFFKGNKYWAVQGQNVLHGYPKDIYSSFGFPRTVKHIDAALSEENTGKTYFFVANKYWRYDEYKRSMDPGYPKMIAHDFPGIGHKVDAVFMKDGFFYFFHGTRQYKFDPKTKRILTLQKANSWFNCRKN
In short: (§1)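 APMA- or trypsin-activated enzymes were preincubated with inhibitor for 5 min at room temperature, then the fluorogenic substrate MCA-Pro-Leu-Gly-Leu-Dpa-Ala-Arg-NH2 was added to a final 4 μM.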

MMP-13 = target: T2, MMP-13 (Homo sapiens, UniProt P45452)
T2 construct: made in house; host or cells: baculovirus / insect cells
In short: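 Assay buffer 100 mM Tris-HCl, 100 mM NaCl, 10 mM CaCl2, pH 7.5. Activated MMP + inhibitor, 5 min RT; then methoxycoumarin peptide substrate, 4 μM final. Readout fluorescence; IC50 calculated.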

MMP-2 = target: T3, MMP-2 (Homo sapiens, UniProt P08253)
T3 construct: made in house; provided by Dr. Gregory Goldberg, Washington University
T3 sequence (P08253 110-660): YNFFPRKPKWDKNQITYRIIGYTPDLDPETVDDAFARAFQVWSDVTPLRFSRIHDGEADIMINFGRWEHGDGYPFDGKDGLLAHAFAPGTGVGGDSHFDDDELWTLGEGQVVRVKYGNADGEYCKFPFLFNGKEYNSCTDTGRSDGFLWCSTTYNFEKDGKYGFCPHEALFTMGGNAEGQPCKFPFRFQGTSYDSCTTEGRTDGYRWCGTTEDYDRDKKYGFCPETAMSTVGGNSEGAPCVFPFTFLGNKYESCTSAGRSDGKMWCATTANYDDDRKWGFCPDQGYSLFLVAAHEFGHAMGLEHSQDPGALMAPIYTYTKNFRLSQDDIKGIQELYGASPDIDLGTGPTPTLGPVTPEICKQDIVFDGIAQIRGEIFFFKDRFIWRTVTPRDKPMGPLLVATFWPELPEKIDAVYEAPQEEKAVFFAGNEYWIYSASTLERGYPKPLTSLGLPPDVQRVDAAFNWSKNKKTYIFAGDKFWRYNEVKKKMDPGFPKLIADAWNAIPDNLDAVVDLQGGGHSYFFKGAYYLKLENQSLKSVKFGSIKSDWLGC
In short: as §1

[1] = recombinant human MMP-1, MCA peptide substrate 4 μM, pH 7.5, room temperature
[2] = recombinant human MMP-13, MCA peptide substrate 4 μM, pH 7.5, room temperature, read-out: MMP-13 IC50
[3] = recombinant human MMP-2, MCA peptide substrate 4 μM, pH 7.5, room temperature, read-out: MMP-2 IC50

SMILES	IC50 (MMP-1; [1])	IC50 (MMP-13; [2])	IC50 (MMP-2; [3])	IC50 (MMP-1)	IC50 (MMP-13; read-out: MMP-13 IC50)	IC50 (MMP-2; read-out: MMP-2 IC50)	IC50 (MMP-13; MMP-13 IC50 (nM))	IC50 (MMP-2; MMP-2 IC50 (nM))
O=C(CNCc1ccccn1)N1CCC(C(=O)NO)(S(=O)(=O)c2ccc(Oc3ccc(C(F)(F)F)cc3)cc2)CC1 [Example 320]	> 10 µM	12.1 nM	4 nM					
CC1CC(C)CN(C(=O)C2CCN(c3ccc(S(=O)(=O)C4(C(=O)NO)CCN(C(=O)CNCCO)CC4)cc3)CC2)C1 (stereo not drawn) [Example 286]	> 10 µM	60 nM	> 10000 nM					
CC(=O)Nc1ccc(Oc2ccc(S(=O)(=O)C3(C(=O)NO)CCN(C4CC4)CC3)cc2)cc1 [Example 378]	0.2 µM	1.7 nM	0.3 nM					
O=C(CCCCN1CCOCC1)N1CCC(C(=O)NO)(S(=O)(=O)c2ccc(Oc3ccc(C(F)(F)F)cc3)cc2)CC1 [Example 335]	> 10 µM	0.9 nM	0.15 nM					
O=C(NO)C1(S(=O)(=O)c2ccc(N3CCC(Oc4ccc(C(F)(F)F)cc4[N+](=O)[O-])CC3)cc2)CCOCC1 [Example 571]	> 10 µM	28.6 nM	140 nM					
COc1cccc(CO[C@@H]2CCN(c3ccc(S(=O)(=O)C4(C(=O)NO)CCN(C5CC5)CC4)cc3)C2)c1 [Example 398]	> 10 µM	7 nM	70 nM					
O=C(NO)C1(S(=O)(=O)c2ccc(N3CC[C@@H](COCc4ccc(F)cc4)C3)cc2)CCOCC1 [Example 526]	> 10 µM	> 10000 nM	> 10000 nM					
CN(C)CCN(C)CC(=O)N1CCC(C(=O)NO)(S(=O)(=O)c2ccc(Oc3ccc(C(F)(F)F)cc3)cc2)CC1 [Example 323]	> 10 µM	1.3 nM	0.4 nM					
O=C(Nc1ccc(C(F)(F)F)cc1)N1CCC(C(=O)NO)(S(=O)(=O)c2ccc(Oc3ccc(C(F)(F)F)cc3)cc2)CC1 [Example 141]	> 10 µM	20 nM	9 nM					
CC(C)(C)c1ccc(C(=O)C2CCN(c3ccc(S(=O)(=O)C4(C(=O)NO)CCOCC4)cc3)CC2)cc1 [Example 789]		12.2 nM	3700 nM	> 10 µM				
C[C@@H]1C[C@H](C)CN(C(=O)C2CCN(c3ccc(S(=O)(=O)C4(C(=O)NO)CCN(C(=O)CCl)CC4)cc3)CC2)C1 [Example 276]	> 10 µM	37.3 nM	> 10000 nM					
O=C(NO)C1(S(=O)(=O)c2ccc(N3CCN(S(=O)(=O)c4ccc(C(F)(F)F)cc4)CC3)cc2)CCOCC1 [Example 677]	> 10 µM	7 nM	34.7 nM					
COCCN1CCC(C(=O)NO)(S(=O)(=O)c2ccc(N3CCC(C(=O)N4CC(C)CC(C)C4)CC3)cc2)CC1 (stereo not drawn) [Example 233, 4-[[4-[4-[(3,5-Dimethyl-1-piperidinyl)carbonyl]-1-piperidinyl]-phenyl]sulfonyl]-N-hydroxy-1-(2-methoxyethyl)-4-piperidinecarboxamide, Monohydrochloride]				> 10 µM	43.5 nM	2050 nM		
CCN(CCCCC(=O)N1CCC(C(=O)NO)(S(=O)(=O)c2ccc(Oc3ccc(C(F)(F)F)cc3)cc2)CC1)Cc1ccncc1 [Example 344]	> 10 µM	2.9 nM	0.65 nM					
CCCc1ccc(C(=O)C2CCN(c3ccc(S(=O)(=O)C4(C(=O)NO)CCOCC4)cc3)CC2)cc1 [Example 860]	> 10 µM	2.7 nM	1500 nM					
COc1ccc(C2CCN(c3ccc(S(=O)(=O)C4(C(=O)NO)CCOCC4)cc3)CC2)c(OC)c1 [Example 833]	> 10 µM	11 nM	1750 nM					
O=C(NO)C1(S(=O)(=O)c2ccc(Oc3ccc(C(F)(F)F)cc3)cc2)CCN(c2ncccc2C(F)(F)F)CC1 [Example 375]	> 10 µM	16.9 nM	15.6 nM					
CCOC(=O)CN1CCN(CC(=O)N2CCC(C(=O)NO)(S(=O)(=O)c3ccc(N4CCC(C(=O)N5CC(C)CC(C)C5)CC4)cc3)CC2)CC1 (stereo not drawn) [Example 305]	> 10 µM	28.6 nM	> 10000 nM					
CCC(C)OCc1ccc(COC2CCN(c3ccc(S(=O)(=O)C4(C(=O)NO)CCOCC4)cc3)CC2)cc1 (stereo not drawn) [Example 556]	> 10 µM	4.5 nM	170 nM					
COc1ccc(C2CCN(c3ccc(S(=O)(=O)C4(C(=O)NO)CCOCC4)cc3)CC2)c(C)c1 [Example 823]	> 10 µM						7 nM	505 nM
O=C(NO)C1(S(=O)(=O)c2ccc(N3CCC(OCc4ccc(COCCF)cc4)CC3)cc2)CCOCC1 [Example 606]	> 10 µM	3 nM	77 nM					
O=C(CNCC(F)(F)F)N1CCC(C(=O)NO)(S(=O)(=O)c2ccc(Oc3ccc(C(F)(F)F)cc3)cc2)CC1 [Example 322]	> 10 µM	0.3 nM	0.3 nM					

Now from value to compound, other results behind:

IC50 (MMP-1; [1])	IC50 (MMP-13; [2])	IC50 (MMP-2; [3])	SMILES	IC50 (MMP-1)	IC50 (MMP-13; read-out: MMP-13 IC50)	IC50 (MMP-2; read-out: MMP-2 IC50)	IC50 (MMP-13; MMP-13 IC50 (nM))	IC50 (MMP-2; MMP-2 IC50 (nM))
> 10 µM	150 nM	550 nM	O=C(NO)C1(S(=O)(=O)c2ccc(N3CCC(O)CC3)cc2)CCOCC1 [Example 564]					
> 10 µM	4.5 nM	306 nM	N#Cc1cccc(COC2CCN(c3ccc(S(=O)(=O)C4(C(=O)NO)CCOCC4)cc3)CC2)c1 [Example 560]					
> 10 µM	1.1 nM	10.6 nM	CCCCSC1CCN(c2ccc(S(=O)(=O)C3(C(=O)NO)CCOCC3)cc2)CC1 [Example 596]					
> 10 µM	40 nM	800 nM	O=C(NO)C1(S(=O)(=O)c2ccc(N3CCC(Oc4ccc([N+](=O)[O-])c(F)c4)CC3)cc2)CCOCC1 [Example 548]					
> 10 µM	18.6 nM	155 nM	O=C(NO)C1(S(=O)(=O)c2ccc(N3CCC(Oc4ccc(OC(F)(F)F)cc4)CC3)cc2)CCOCC1 [Example 480]					
> 10 µM	4 nM	15.5 nM	O=C(NO)C1(S(=O)(=O)c2ccc(N3CCN(c4ccc(F)cc4F)CC3)cc2)CCOCC1 [Example 87]					
> 10 µM	160 nM	2000 nM	O=C(NO)C1(S(=O)(=O)c2ccc(N3CCC(OCc4ccccn4)CC3)cc2)CCOCC1 [Example 578]					
> 10 µM	2.7 nM	18.6 nM	O=C(NO)C1(S(=O)(=O)c2ccc(N3CCC(Oc4ccc([N+](=O)[O-])cc4)CC3)cc2)CCOCC1 [Example 546]					
> 10 µM	60 nM	150 nM	CO[C@@H]1CCN(c2ccc(S(=O)(=O)C3(C(=O)NO)CCOCC3)cc2)C1 [Example 533]					
> 10 µM	6100 nM	> 10000 nM	O=C(NO)C1(S(=O)(=O)c2ccc(N3CC4CC3CO4)cc2)CCOCC1 (stereo not drawn) [Example 492]					
> 10 µM	270 nM	350 nM	CC(=O)N1CCN(c2ccc(S(=O)(=O)C3(C(=O)NO)CCOCC3)cc2)CC1 [Example 539]					
> 10 µM	50 nM	8000 nM	CN(Cc1cccnc1)C(=O)C1CCN(c2ccc(S(=O)(=O)C3(C(=O)NO)CCOCC3)cc2)CC1 [Example 497]					
> 10 µM	7700 nM	> 10000 nM	O=C(NO)C1(S(=O)(=O)c2ccc(N3CCCCC3CCOCc3ccc(F)cc3)cc2)CCOCC1 (stereo not drawn) [Example 510]					
> 10 µM	3.5 nM	50 nM	O=C(Nc1ccccc1Cl)OC1CCN(c2ccc(S(=O)(=O)C3(C(=O)NO)CCOCC3)cc2)CC1 [Example 521]					
> 10 µM	3.8 nM	22 nM	Cc1ccc(OC2CCN(c3ccc(S(=O)(=O)C4(C(=O)NO)CCOCC4)cc3)CC2)cc1C [Example 637]					
> 10 µM	130 nM	240 nM	O=C(NO)C1(S(=O)(=O)c2ccc(N3CCCC3)cc2)CCSCC1 [Example 155]					
